Laboratory results published in patent US10981932B2, “Macrocyclic indole derivatives” (Bayer Aktiengesellschaft, priority 2016, dated 2021).
Counter-ions that a name gives are not always drawn. Like-named read-outs stand apart in the source and are kept apart here.

Tests used:
SUDHL5 [1] = assay: Anti-proliferative effect (CellTiter-Glo, 72 h), SUDHL5; assay type: cell-based; conditions: SUDHL5 cells, antiproliferation, median, read-out: Antiproli SUDHL5 [M] (median)
Procedure, shortened: (§1)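 Luminescence from CellTiter-Glo, read 10 min after reagent addition, reports viable cell content after 72 h of compound treatment at 37 °C. A reference plate read at day 0 gives the starting baseline.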

A2780 = assay: Anti-proliferative effect (CellTiter-Glo, 72 h), A2780; assay type: cell-based; conditions: A2780 cells, median, read-out: IC50 antiproliferation assay A2780 [M] (median)
Procedure, shortened: as §1

SUDHL5 [2] = assay: Induction of caspase-3/7 activity (Caspase-Glo 3/7), SUDHL5; assay type: cell-based; conditions: caspase-3/7 induction, SUDHL5 cells, 3 h treatment, median
Procedure, shortened: (§2)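 Apoptosis induction measured as caspase-3/7 activity (Caspase-Glo 3/7) in DLBCL lines after 3 h treatment at 37 °C; EC50 derived relative to the reference compound's maximal induction, with C0 fixed at 1.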

SUDHL10 [3] = assay: Induction of caspase-3/7 activity (Caspase-Glo 3/7), SUDHL10; assay type: cell-based; conditions: caspase-3/7 induction, SUDHL10 cells, 3 h treatment, median
Procedure, shortened: as §2

SUDHL5 [4] = assay: Induction of cytotoxicity (CellTiter-Glo, 5 h), SUDHL5
SUDHL10 [5] = assay: Induction of cytotoxicity (CellTiter-Glo, 5 h), SUDHL10
MV-4-11 = assay: Anti-proliferative effect (CellTiter-Glo, 72 h), MV-4-11; assay type: cell-based; conditions: MV-4-11 cells, median, read-out: IC50 antiproliferation assay MV-4-11 [M] (median)
Procedure, shortened: as §1

MCL-1 = MCL-1 (Homo sapiens, UniProt Q07820); assay: Protein-protein interaction assay MCL-1/Noxa BH3 peptide (MCL-1 assay), TR-FRET; assay type: binding; conditions: MBP-MCL-1 / Noxa BH3-derived peptide, median
Procedure, shortened: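 Inhibition values were normalized between DMSO controls with all reagents and controls lacking MCL-1. The binding competition used 1 nM MBP-MCL-1 in pH 7 Tris buffer containing 50 mM KF and 100 mM NaCl, with a 10 min compound preincubation at 22 °C.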

[6] = read-out: Cytotox SUDHL5 [M] (median), SUDHL5 cells, cytotoxicity induction, CellTiter-Glo, 5 h incubation, median
[7] = read-out: Cytotox SUDHL10 [M] (median), SUDHL10 cells, cytotoxicity induction, CellTiter-Glo, 5 h incubation, median

MCL-1, sequence (Q07820 whole entry): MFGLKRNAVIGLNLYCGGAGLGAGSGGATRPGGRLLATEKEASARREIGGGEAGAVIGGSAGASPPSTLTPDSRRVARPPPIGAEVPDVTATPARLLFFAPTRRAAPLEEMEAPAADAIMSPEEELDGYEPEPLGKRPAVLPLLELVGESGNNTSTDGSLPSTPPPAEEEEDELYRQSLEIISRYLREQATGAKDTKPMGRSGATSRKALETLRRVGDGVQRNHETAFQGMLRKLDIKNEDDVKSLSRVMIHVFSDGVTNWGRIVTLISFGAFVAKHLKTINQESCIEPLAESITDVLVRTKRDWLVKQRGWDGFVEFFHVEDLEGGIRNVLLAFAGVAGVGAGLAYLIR

| IC50 (SUDHL5 [1]; 72 h incubation) [M] | IC50 (A2780; Homo sapiens, A2780, 72 h) [M] | EC50 (SUDHL5 [2]) [µM] | EC50 (SUDHL10 [3]) [µM] | IC50 (MV-4-11) [M] | IC50 (MCL-1) [µM] | IC50 (SUDHL5 [1]; 72 h) [M] | IC50 (A2780) [M] | IC50 (MV-4-11; Homo sapiens, MV4-11, 72 h) [M] | IC50 (SUDHL5 [1]; Homo sapiens, SU-DHL-5, 72 h, 72 h) [M] | EC50 (SUDHL5 [2]; Homo sapiens, SU-DHL-5, 3 h) [µM] | EC50 (SUDHL10 [3]; Homo sapiens, SU-DHL10, 3 h) [µM] | SMILES | IC50 (SUDHL5 [4]; [6]) [M] | IC50 (SUDHL10 [5]; [7]) [M] | IC50 (SUDHL5 [4]; read-out: Cytotox SUDHL5 [M] (median), SUDHL5 cells, cytotoxicity induction, CellTiter-Glo, 5 h, median) | IC50 (SUDHL10 [5]; read-out: Cytotox SUDHL10 [M] (median), SUDHL10 cells, cytotoxicity induction, CellTiter-Glo, 5 h, median) | IC50 (SUDHL5 [4]; Homo sapiens, SU-DHL-5, 5 h, read-out: Cytotox SUDHL5 [M] (median), SUDHL5 cells, cytotoxicity induction, CellTiter-Glo, 5 h, median) | IC50 (SUDHL10 [5]; Homo sapiens, SU-DHL10, 5 h, read-out: Cytotox SUDHL10 [M] (median), SUDHL10 cells, cytotoxicity induction, CellTiter-Glo, 5 h, median) |
| --- | --- | --- | --- | --- | --- | --- | --- | --- | --- | --- | --- | --- | --- | --- | --- | --- | --- | --- |
| 6.7e-06 | 1.66e-05 | 3.85 | 9.85 | 2.37e-06 | 0.00325 |  |  |  |  |  |  | Cn1nc2c(c1CN1CCOCC1)-c1cccc3c(CCCOc4cccc5ccccc45)c(C(=O)O)n(c13)CCCCOC2 (single isomer, unassigned; enantiomer 1) [Example 079, 2-methyl-3-(morpholin-4-ylmethyl)-7-[3-(naphthalen-1-yloxy)propyl]-2,10,11,12,13,15-hexahydropyrazolo[4′,3′:9,10][1,6]oxazacycloundecino[8,7,6-hi]indole-8-carboxylic acid-N-ethylethanamine Salt (Enantiomer 1)] | 4.24e-06 | 8.83e-06 |  |  |  |  |
|  |  | > 33 | > 33 | 3.11e-05 | 1.28 | 8.32e-06 | 2.17e-05 |  |  |  |  | COc1ccc2c(CCCOc3cccc4ccccc34)c(C(=O)O)n3c2c1-c1c(C)nn(C)c1COCCCC3 (single isomer, unassigned; enantiomer 2) [Example 353, 4-methoxy-1,3-dimethyl-7-[3-(naphthalen-1-yloxy)propyl]-1,10,11,12,13,15-hexahydropyrazolo[4′,3′:9,10][1,6]oxazacycloundecino[8,7,6-hi]indole-8-carboxylic Acid Ammonium Salt (Enantiomer 2)] |  |  | > 3.3e-05 | > 3.3e-05 |  |  |
| 8.59e-06 |  | 23.8 | 20.2 |  | 0.0234 |  | 1.97e-05 | 1.14e-05 |  |  |  | Cc1ccc2c(CCCOc3cccc4ccccc34)c(C(=O)O)n3c2c1-c1c(C)nn(C)c1COCCC3 (single isomer, unassigned; enantiomer 2) [Example 026, (−)-9,11,12-trimethyl-1-[3-(naphthalen-1-yloxy)propyl]-5,6,8,9-tetrahydro-4H-pyrazolo[4′,3′:8,9][1,5]oxazecino[7,6,5-hi]indole-2-carboxylic acid-N-ethylethanamine Salt (Enantiomer 2)] | 2.41e-05 | 2.58e-05 |  |  |  |  |
|  | 1.72e-05 |  |  |  | 0.00528 |  |  | 1.58e-05 | 9.86e-06 | 17 | 19 | Cc1c2c(nn1C)COCCCCn1c(C(=O)O)c(CCCOc3cccc4cc(Cl)ccc34)c3cccc-2c31 (racemic) [Example 295, (rac)-7-{3-[(6-chloronaphthalen-1-yl)oxy]propyl}-2,3-dimethyl-2,10,11,12,13,15-hexahydropyrazolo[4′,3′:9,10][1,6]oxazacycloundecino[8,7,6-hi]indole-8-carboxylic Acid] |  |  |  |  | 1.61e-05 | 1.8e-05 |
| 2e-06 |  | 1.33 | 2.49 | 2.83e-06 | 0.00165 |  | 1.03e-05 |  |  |  |  | CCc1c2c(nn1CCN1CCOCC1)COCCCCn1c(C(=O)O)c(CCCOc3cccc4ccccc34)c3ccc(C)c-2c31 (single isomer, unassigned; enantiomer 1) [Example 205, 3-ethyl-4-methyl-[2-(2-(morpholin-4-yl)ethyl]-7-[3-(naphthalen-1-yloxy)propyl]-2,10,11,12,13,15-hexahydropyrazolo[4′3′:9,10][1,6]oxazacycloundecino[8,7,6-hi]indole-8-carboxylic Acid (Enantiomer 1)] | 1.38e-06 | 2.92e-06 |  |  |  |  |
| 5.11e-06 |  | 11.8 | > 33 | 1.73e-05 | 0.0272 |  | 1.26e-05 |  |  |  |  | Cc1c2c(nn1CCN1CCOCC1)COCCCCn1c(C(=O)O)c(CCCOc3cccc4cc(F)ccc34)c3cccc-2c31 (single isomer, unassigned) [Example 286, (−)-7-{3-[(6-fluoronaphthalen-1-yl)oxy]propyl}-3-methy-2-[2-(morpholin-4-yl)ethyl]-2,10,11,12,13,15-hexahydropyrazolo[4′,3′:9,10][1,6]oxazacycloundecino[8,7,6-hi]indole-8-carboxylic acid-N-ethylethanamine Salt] | 1.2e-05 | > 3.3e-05 |  |  |  |  |
